Measured values reported in patent US9321772B2, “Substituted pyrazolo[3,4-D]pyrimidines and uses thereof” (The Regents of the University of California, priority 2011, dated 2016).
“Also recorded” adds a separate entry of the source.

Legend:
ptc>dRet^MEN2B flies = test: Drosophila ptc>dRetMEN2B viability assay; type: in vivo; conditions: for rescue of ptc>dRetMEN2B viability (pupae, adults), in words: oral administration, drug mixed into food
Text: FIG. 1A. Suppression of Ret^MEN2B-induced developmental block and whole animal toxicity were scored based on number of embryos (n) that survived as pupae (x) and adults (y). Drugs were mixed into food and fed to flies starting at larval stages.
FIG. 1B. Percent viability of control or drug treated flies determined for pupae (x/n) and adults (y/n).
Described herein is a Drosophila MEN2B model in which an intracellular mutation in the Drosophila Ret ortholog (dRet) was targeted to the eye (Read, R. D. et al., Genetics, 2005. 171(3): p. 1057-81). […] The screen is conducted in developing drosophila embryos. Under normal circumstances, drosophila embryos pass through four developmental steps: embryo→larvae→pupae→adult. […] We calibrated the ptc>dRetMEN2B assay to permit 50% survival to pupariation and 0% survival to adulthood. Mutated forms of RET are believed to be causative in human thyroid cancers including multiple endocrine neoplasia types 2A and 2B (MEN2A and MEN2B). The screen identifies small molecules that (a) suppress the toxicity induced by oncogenic RET and (b) allow flies to develop to functional adults. […] 64(19): p. 7099-109; Sun, L. et al., J Med Chem, 2003. 46(7): p.

wild type flies = test: Viability of drug treated wild-type flies; type: in vivo, Drosophila
Text: FIG. 4B. Decreased viability of wild type flies by AD58 was mitigated by co-administration of Sorafenib or AZD6244.
FIG. 15. Percent viability of control and drug treated wild-type flies (WT). The proportion of WT pupae and adults that survived from the total number of embryos (indicated in brackets below) are represented as column graphs. (Pupae left, Adults right)

[1] = system: ptc>dRet^MEN2B wing cells; test: Wing-based assay for transformation and cell migration (ptc>dRetMEN2B); type: in vivo, Drosophila
Text: FIG. 4E. Quantification of ptc>dRet^MEN2B phenotypes. Invasion was established by scoring for single/groups of GFP-labeled cells that relocated away from the ptc boundary (FIG. 4C, asterisks). Basal migration was scored as indentation of the apical surface (see FIG. 2B, arrows). Proliferation was scored as significant widening of the ptc boundary. The number of wings analyzed under each condition is indicated in brackets.
We previously developed a wing-based assay for transformation and cell migration that we utilized to explore Ras- and Src-based tumorigenesis (Vidal, M., D. E. Larson, and R. L. Cagan, Dev Cell, 2006. 10(1): p. 33-44). In this assay, the ptc-GAL4 driver directed oncogene expression in a stripe along the anterior-posterior axis; oncogene-based transformation led to over-proliferation, epithelial-to-mesenchymal transition (EMT), and cell migration away from the ptc domain.

[2] = system: 765>dRet^MEN2B wings (Ras/Erk pathway activity); test: Adult wing vein pattern assay (765>dRetMEN2B); type: in vivo, Drosophila; conditions: drug fed flies
Text: The adult Drosophila wing consists of a stereotypical pattern of […] and two cross-veins; increased Ras/Erk pathway activity leads to ectopic veins (e.g., Refs. (Sawamoto, K. et al., Dev Biol, 1996. 178(1): p. 13-22; Guichard, A. et al., Development, 1999. 126(12): p. 2663-76)). Expression of oncogenic dRet throughout the developing wing (765>dRet^MEN2B) led to disruption of the overall adult wing pattern including ectopic wing veins (FIG. 3D). Reducing gene dosage of the erk ortholog rolled (765>dRet^MEN2B erk−/+) suppressed these phenotypes (FIG. 3D), confirming that wing vein formation is dependent on Ras/Erk activity.

B-Raf = B-Raf (Homo sapiens, UniProt P15056); test: In vitro kinase assay, B-Raf; type: biochemical; conditions: in vitro kinase profile, 1 μM
Method: (§1) Using in vitro kinase assays we tested AD57, AD36, and AD58 at 1 μM for activity against approximately one-half of the human kinome (FIG. 1E): 165 Ser/Thr kinases, 91 Tyr kinases, and 10 PI kinases were assayed, totaling 266 kinases (244 distinct kinases plus 22 mutant isoforms; see FIG. 6A-6C, FIG. 7A-7F, and FIG. 8 for measured inhibition values).
(§2) At least three major pathways are required for dRet^MEN2B-mediated transformation: Ras, Src, and glucose metabolism/PI3K (FIG. 3A; Ref (Read, R. D. et al., Genetics, 2005. 171(3): p. 1057-81)). We utilized in vitro kinase assays to assess compound activity against relevant kinases from each of these pathways, specifically Ret, B-Raf, Src, Tor, and S6K (FIG. 3B).

Src = Src (Homo sapiens, UniProt P12931); test: In vitro kinase assay, Src; type: biochemical; conditions: in vitro kinase profile, 1 μM
Method: as §1, §2

S6K = S6K (Homo sapiens, UniProt P23443); test: In vitro kinase assay, S6K; type: biochemical; conditions: in vitro kinase profile, 1 μM
Method: as §1, §2

mTor = mTor (Homo sapiens, UniProt P42345); test: In vitro kinase assay, mTor; type: biochemical; conditions: in vitro kinase profile, 1 μM
Method: as §1, §2

[3] = system: MEN2B (MZ) thyroid cancer cells; test: Immunoblot analysis of drug-treated MZ cells; type: cell-based, human; conditions: 1 hour of treatment
Method: (§3) FIG. 19. […] MEN2A (TT) and MEN2B (MZ) thyroid cancer cells were treated with the indicated drugs for 3 days at a final concentration of 2 μM. Cell lystates were immunoblotted for protein markers of apoptosis. Vandetanib (vand.) was included for comparison.
(§4) FIG. 20A-20B. […] FIG. 20A. MEN2B (MZ) and FIG. 20B. MEN2A (TT) thyroid cancer cells were treated with the indicated concentrations of drug. Following 1 hour of treatment, cells were harvested and lysates prepared for immunoblotting to detect the indicated proteins. VD=vandetanib; SF=sorafenib.

[4] = system: MEN2A (TT) thyroid cancer cells; test: Immunoblot analysis of drug-treated TT cells; type: cell-based, human; conditions: 1 hour of treatment
Method: as §3, §4

Ret kinase domain = target: T1, Ret kinase domain (Homo sapiens, UniProt P07949); test: In vitro kinase assay, Ret; type: biochemical; conditions: in vitro kinase profile, 1 μM
T1 construct: determined against a purified form of the Ret kinase domain
T1 sequence (P07949 724-1016 limits assumed): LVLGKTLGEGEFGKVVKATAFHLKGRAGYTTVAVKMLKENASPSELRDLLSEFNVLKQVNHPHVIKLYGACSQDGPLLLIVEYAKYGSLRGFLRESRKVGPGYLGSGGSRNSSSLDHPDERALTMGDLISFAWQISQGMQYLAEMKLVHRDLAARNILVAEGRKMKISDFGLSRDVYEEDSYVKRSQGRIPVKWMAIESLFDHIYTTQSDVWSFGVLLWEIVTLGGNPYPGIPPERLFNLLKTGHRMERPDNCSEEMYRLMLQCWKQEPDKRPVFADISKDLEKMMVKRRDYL
Method: FIG. 1D. […] Half maximal inhibitory concentrations (IC50) were determined against a purified form of the Ret kinase domain.
as §1, §2

[5] = system: MZ-CRC-1 (MEN2B) cancer cell line; test: MZ-CRC-1 cell viability (MTT assay); type: cell-based, human
[6] = system: TT cell tumors in athymic nu/nu mice; test: MEN2 (TT) mouse xenograft model; type: in vivo; conditions: nude mice transplanted with TT cells; oral gavage; median per group
Method: FIG. 11. […] TT thyroid cancer cells were implanted into athymic nu/nu mice subcutaneously into the right flank under the conditions listed. Upon establishment of tumors, drugs were administered by oral gavage (5 days ON/2 days OFF schedule). Tumors were measured using digital calipers. […] VD=vandetanib.
FIG. 18A-18D. […] FIG. 18A. MEN2B (MZ) thyroid cancer cells were treated with the indicated concentrations of each inhibitor (7 days) and cell viability was quantitated by MTT assay. FIG. 18B. MEN2A (TT) thyroid cancer cells were treated with the indicated concentrations of each inhibitor (7 days) and cell viability was quantitated by MTT assay. FIG. 18C. […] Change in tumor volume was calculated per mouse. Values shown are the median percent change per group. 20 and 10 animals for vehicle and drug treated mice, respectively, were analyzed. FIG. 18D. Body weight measurements of AD80, Vandetanib (VD) and vehicle treated nude mice transplanted with TT cells. Values shown are the median of 20 and 10 animals for vehicle and drug treated mice, respectively.
TT-based tumors were grown for 46 days in athymic nu/nu male mice prior to drug administration.

Chain of B-Raf (P15056 whole entry, canonical isoform): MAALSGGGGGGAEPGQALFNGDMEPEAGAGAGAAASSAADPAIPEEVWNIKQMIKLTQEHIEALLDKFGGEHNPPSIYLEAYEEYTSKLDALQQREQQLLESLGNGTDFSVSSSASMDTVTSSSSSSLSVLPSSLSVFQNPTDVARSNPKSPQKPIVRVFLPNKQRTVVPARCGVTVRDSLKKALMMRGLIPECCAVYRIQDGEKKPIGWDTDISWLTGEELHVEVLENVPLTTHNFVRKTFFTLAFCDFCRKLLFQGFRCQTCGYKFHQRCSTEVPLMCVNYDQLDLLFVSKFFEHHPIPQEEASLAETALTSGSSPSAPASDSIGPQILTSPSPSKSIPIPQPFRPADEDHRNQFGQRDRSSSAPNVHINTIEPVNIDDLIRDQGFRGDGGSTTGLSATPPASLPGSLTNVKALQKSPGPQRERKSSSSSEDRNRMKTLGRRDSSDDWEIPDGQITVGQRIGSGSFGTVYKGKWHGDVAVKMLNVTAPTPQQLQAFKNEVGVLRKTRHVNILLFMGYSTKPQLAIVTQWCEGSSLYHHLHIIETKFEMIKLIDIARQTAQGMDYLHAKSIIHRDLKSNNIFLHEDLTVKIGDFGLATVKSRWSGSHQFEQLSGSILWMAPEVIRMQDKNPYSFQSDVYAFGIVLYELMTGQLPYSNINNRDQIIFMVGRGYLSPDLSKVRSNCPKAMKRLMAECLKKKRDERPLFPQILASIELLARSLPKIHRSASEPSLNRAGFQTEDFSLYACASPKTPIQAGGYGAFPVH
Chain of Src (P12931 whole entry): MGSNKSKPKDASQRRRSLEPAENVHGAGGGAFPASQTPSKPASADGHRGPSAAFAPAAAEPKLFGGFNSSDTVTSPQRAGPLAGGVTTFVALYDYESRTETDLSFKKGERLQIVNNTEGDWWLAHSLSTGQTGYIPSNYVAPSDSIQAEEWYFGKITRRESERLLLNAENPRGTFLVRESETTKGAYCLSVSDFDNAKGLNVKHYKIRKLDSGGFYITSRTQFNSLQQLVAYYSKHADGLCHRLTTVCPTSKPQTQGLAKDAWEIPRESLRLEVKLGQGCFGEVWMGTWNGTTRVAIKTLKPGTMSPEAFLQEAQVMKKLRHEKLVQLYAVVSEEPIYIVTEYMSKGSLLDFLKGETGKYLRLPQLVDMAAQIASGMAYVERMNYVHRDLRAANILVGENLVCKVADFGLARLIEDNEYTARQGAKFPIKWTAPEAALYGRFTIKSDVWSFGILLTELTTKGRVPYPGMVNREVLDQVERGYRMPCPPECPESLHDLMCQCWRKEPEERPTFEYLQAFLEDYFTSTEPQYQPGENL
Chain of S6K (P23443 whole entry): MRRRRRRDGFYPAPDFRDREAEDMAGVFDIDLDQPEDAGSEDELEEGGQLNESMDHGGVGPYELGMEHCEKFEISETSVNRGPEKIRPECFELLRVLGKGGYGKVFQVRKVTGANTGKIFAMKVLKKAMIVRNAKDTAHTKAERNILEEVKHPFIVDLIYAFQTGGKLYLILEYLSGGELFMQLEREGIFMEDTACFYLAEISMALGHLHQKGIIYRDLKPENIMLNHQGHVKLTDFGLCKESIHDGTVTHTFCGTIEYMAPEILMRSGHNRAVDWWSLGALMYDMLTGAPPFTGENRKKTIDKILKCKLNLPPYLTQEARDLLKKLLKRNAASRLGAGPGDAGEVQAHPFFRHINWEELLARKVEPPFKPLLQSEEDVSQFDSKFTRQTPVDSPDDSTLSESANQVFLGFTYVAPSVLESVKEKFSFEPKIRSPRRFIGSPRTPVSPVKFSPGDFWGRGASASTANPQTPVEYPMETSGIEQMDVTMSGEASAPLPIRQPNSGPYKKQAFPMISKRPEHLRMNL

Row | SMILES | rescue of ptc>dRetMEN2B viability (pupae, adults), in words (ptc>dRet^MEN2B flies) | suppression of dRetMEN2B-induced proliferation, EMT, invasion/basal migration ([1]; oral administration) | B-Raf (Raf) inhibition, in words (B-Raf) | Src inhibition, in words (Src) | S6K inhibition, in words (S6K) | mTor inhibition, in words (mTor) | also measured
1 | CC(C)n1nc(-c2ccc(NC(=O)Nc3ccccc3)cc2)c2c(N)ncnc21 [AD58] | significant toxicity without detectable efficacy | failed to prevent invasion/basal migration and not and did not suppress migration | much weaker inhibitor | strongly inhibited | much weaker inhibitor | more potent; also recorded: stronger inhibitor | effect of reducing dTor on drug efficacy/toxicity (ptc>dRet^MEN2B flies; ptc>dRetMEN2B dTor-/+): enhanced the toxicity; effect of reducing erk gene dosage on drug efficacy in viability assay (ptc>dRet^MEN2B flies; ptc>dRetMEN2B, erk-/+): considerably enhanced the efficacy; whole animal toxicity (wild type flies; fed to ptc>dRetMEN2B and wild type flies): significant whole animal toxicity; invasion and migration of dRetMEN2B-transformed cells ([1]; co-treatment AD58 plus Sorafenib): significant suppression of invasion and migration; also recorded: blocked; basal phospho-Src in wing epithelium ([1]; oral administration): prevented basal phospho-Src accumulation; ectopic wing vein / wing pattern phenotype [2]: slightly but consistently enhanced; phospho-Ret and downstream biomarkers [3]: potent inhibitors; phospho-Ret and downstream biomarkers [4]: potent inhibitors
2 | CC(C)n1nc(-c2ccc(NC(=O)Nc3ccc(Cl)c(C(F)(F)F)c3)cc2)c2c(N)ncnc21 [AD81] | improved rescue relative to AD57 | significantly improved suppression | inhibited | inhibited | inhibited | not and greatly reduced mTor activity and lack significant inhibitory activity | Ret inhibition, in words (Ret kinase domain): inhibited
3 | Cn1cnc2c(F)c(Nc3ccc(Br)cc3Cl)c(C(=O)NOCCO)cc21 [AZD6244, reference compound] | did not rescue viability |  |  |  |  |  | AD58-mediated toxicity in wild type flies on co-feeding with the named drug (wild type flies; in vivo): almost completely suppressed
4 | Nc1ncnc2c1c(-c1cnc3[nH]ccc3c1)nn2C1CCCC1 [PP121, reference compound] |  | limited ability to significantly rescue the transformation phenotype and not |  |  |  |  | inhibition of MZ-CRC-1 cell viability / proliferation, in words [5]: levels approaching AD57
5 | CNC(=O)c1cc(Oc2ccc(NC(=O)Nc3ccc(Cl)c(C(F)(F)F)c3)cc2)ccn1 [Sorafenib, reference compound] | stronger; also recorded: rescued some animals to adulthood but did not significantly increase the proportion that developed to pupariation | measurable rescue that was nonetheless less than AD57; also recorded: did not suppress migration |  |  |  |  | notum, scutellum and cuticle defects of ptc>dRetMEN2B adults (ptc>dRet^MEN2B flies; drug fed flies): weakly suppressed; also recorded: some cuticle defects; AD58-mediated toxicity in wild type flies on co-feeding with the named drug (wild type flies; co-feeding with AD58): almost completely suppressed
6 | COc1cc2c(Nc3ccc(Br)cc3F)ncnc2cc1OCC1CCN(C)CC1 [Vandetanib, reference compound] |  |  |  |  |  |  | reduction of tumor progression relative to vehicle [6]: 1.9 fold
